Here are results for nine molecules from ChEMBL document CHEMBL5058564, “EUbOPEN Chemogenomics Library 2 (Incucyte)” (2022).

Holding throughout (format): toxicity, cell-based
One series relates to Fibroblast. Nature of the series: Incucyte cell viability with human fibroblast. The following applies: 10 µM, compound concentration 10 uM.
Another series has as its system HEK-293T. As to the kind of experiment: Incucyte cell viability with HEK293T. The note with it: human, 10 µM, compound concentration 10 uM.
For the next series, the system named is U2OS. As to the kind of experiment: Incucyte cell viability with U2OS. The following applies: human, 10 µM, compound concentration 10 uM.
[1] abbreviates: 0 h, replicate number 1, timepoint 0 hours.
Where [2] appears, read: 0 h, replicate number 2, timepoint 0 hours.
[3] abbreviates: 6 h, replicate number 1, timepoint 6 hours.
The mark [4] stands for this setting: 12 h, replicate number 1, timepoint 12 hours.
Setting [5] is: 18 h, replicate number 1, timepoint 18 hours.
Setting [6] is: 18 h, replicate number 2, timepoint 18 hours.
Setting [7] is: 24 h, replicate number 1, timepoint 24 hours.
Setting [8] is: 24 h, replicate number 2, timepoint 24 hours.
[9] abbreviates: 6 h, replicate number 2, timepoint 6 hours.
[10] abbreviates: 12 h, replicate number 2, timepoint 12 hours.
Also: unitless GR value; below 1 slowed growth and below 0 cell loss.

For the molecule `O=S(=O)(c1ccccc1)c1cnc2c(N3CCNCC3)cccc2c1` [INTEPIRDINE], the “Growth Rate” value in the series with Fibroblast (setting [1]) is 0.87; with Fibroblast (setting [2]), 0.36; with Fibroblast (setting [3]), 0.23; in the series with Fibroblast (setting [4]), 0.57; with Fibroblast (setting [5]), 0.61; in the series on Fibroblast (setting [6]), 0.94. In addition, the “Growth Rate” value is on record as 0.42 in the series on Fibroblast (setting [7]); 0.98 with Fibroblast (setting [8]); 1 with HEK-293T (setting [1]); 0.98 with HEK-293T (setting [2]); -0.78 with U2OS (setting [1]); 0.23 in the series on U2OS (setting [9]). The “Growth Rate” value in the series with U2OS (setting [10]) came out at 0.78; in the series on U2OS (setting [6]), 0.82; in the series with U2OS (setting [8]) it was 0.84.
In the case of `CN(C)CCN(Cc1ccc(-c2ccc(CNCCc3ccccc3)cc2)cc1)C(=O)CCC1CCCC1.Cl.Cl`, the “Growth Rate” value with Fibroblast (setting [3]) is -1; in the series on Fibroblast (setting [4]), -0.99; in the series with Fibroblast (setting [5]) it was -0.96; in the series with Fibroblast (setting [6]) it was -0.99; in the series with Fibroblast (setting [7]) it was -0.93; in the series on Fibroblast (setting [8]) it was -0.98. In addition, the “Growth Rate” value is -0.93 in the series with HEK-293T (setting [3]); -0.92 in the series with HEK-293T (setting [9]); -0.74 in the series with HEK-293T (setting [4]); -0.78 in the series with HEK-293T (setting [10]); -0.55 with HEK-293T (setting [5]); -0.67 in the series with HEK-293T (setting [6]). The “Growth Rate” value is given as -0.46 in the series with HEK-293T (setting [7]); -0.59 in the series on HEK-293T (setting [8]); -1 in the series on U2OS (setting [3]); -0.96 in the series with U2OS (setting [9]); -0.99 in the series with U2OS (setting [4]); -0.81 in the series with U2OS (setting [10]). Moreover, the “Growth Rate” value in the series on U2OS (setting [5]) is given as -0.92; in the series with U2OS (setting [6]) it was -0.64; with U2OS (setting [7]), -0.86; in the series on U2OS (setting [8]), -0.58.
`Cc1nc2ccc(Oc3ccc(F)cc3)cc2c(=O)n1C[C@H]1CCCN(C(C)C)C1.Cl`: the “Growth Rate” value is reported as -0.24 in the series on Fibroblast (setting [3]); -0.65 in the series on Fibroblast (setting [9]); -0.26 with Fibroblast (setting [4]); -0.42 with Fibroblast (setting [10]); -0.42 with Fibroblast (setting [5]); -0.21 in the series with Fibroblast (setting [6]). Also, the “Growth Rate” value is listed as -0.38 in the series on Fibroblast (setting [7]); -0.28 in the series on Fibroblast (setting [8]); 0.01 in the series on HEK-293T (setting [3]); 0.52 with HEK-293T (setting [9]); -0.18 in the series on HEK-293T (setting [4]); 0.29 in the series with HEK-293T (setting [10]). For the same molecule, the “Growth Rate” value in the series on HEK-293T (setting [5]) is recorded as -0.23; with HEK-293T (setting [6]), 0.13; in the series on HEK-293T (setting [7]) it was -0.2; with HEK-293T (setting [8]) it was -0.05; with U2OS (setting [3]) it was -0.6; in the series on U2OS (setting [9]), 0.98. Further, the “Growth Rate” value in the series on U2OS (setting [10]) is on record as 0.97; in the series on U2OS (setting [6]), 0.96.
Take `C[C@H](CCC(=O)O)[C@H]1CC[C@H]2[C@@H]3CC[C@@H]4C[C@H](O)CC[C@]4(C)[C@H]3CC[C@]12C` [LITHOCHOLIC ACID]: the “Growth Rate” value came to 0.62 in the series with Fibroblast (setting [2]); 0.65 in the series with Fibroblast (setting [3]); 0.42 in the series on Fibroblast (setting [4]); 0.98 in the series with Fibroblast (setting [10]); 0.36 in the series on Fibroblast (setting [5]); 0.98 with Fibroblast (setting [6]). Moreover, the “Growth Rate” value in the series with Fibroblast (setting [7]) is on record as 0.22; in the series with Fibroblast (setting [8]), 0.78; in the series with HEK-293T (setting [1]), 0.8; in the series on HEK-293T (setting [2]), 0.75; with HEK-293T (setting [3]), 0.39; in the series on HEK-293T (setting [4]), 0.56. Moreover, the “Growth Rate” value with HEK-293T (setting [10]) came to 0.96; with HEK-293T (setting [5]), 0.75; with HEK-293T (setting [7]) it was 0.76; in the series with HEK-293T (setting [8]), 0.86; in the series on U2OS (setting [1]) it was 0.9; in the series with U2OS (setting [2]), 0.03. For the same molecule, the “Growth Rate” value with U2OS (setting [9]) came out at 0.51; in the series with U2OS (setting [4]), 0.79; in the series with U2OS (setting [10]), 0.77; with U2OS (setting [5]), 0.78; in the series with U2OS (setting [6]) it was 0.79; with U2OS (setting [7]), 0.96. In addition, in the series with U2OS (setting [8]), the “Growth Rate” value turned out to be 0.75.
As for `C[C@@H](O[C@H]1OCCN(Cc2n[nH]c(=O)[nH]2)[C@H]1c1ccc(F)cc1)c1cc(C(F)(F)F)cc(C(F)(F)F)c1` [APREPITANT], the “Growth Rate” value in the series on Fibroblast (setting [3]) is listed as 0.71; in the series on Fibroblast (setting [9]), -0.37; in the series on Fibroblast (setting [4]) it was 0.39; in the series on Fibroblast (setting [10]), -0.12; in the series with Fibroblast (setting [5]) it was 0.18; with Fibroblast (setting [6]) it was 0.17. For the same molecule, the “Growth Rate” value was found to be 0.28 with Fibroblast (setting [7]); 0.5 with Fibroblast (setting [8]); 0.91 in the series with HEK-293T (setting [3]); 0.66 in the series with HEK-293T (setting [9]); 0.57 in the series on HEK-293T (setting [4]); 0.97 in the series with HEK-293T (setting [10]). Moreover, the “Growth Rate” value is reported as 0.77 with HEK-293T (setting [5]); 0.84 in the series on HEK-293T (setting [6]); 0.74 in the series with HEK-293T (setting [7]); -0.52 in the series with U2OS (setting [1]); -1 in the series on U2OS (setting [2]); 0.29 with U2OS (setting [3]). Also, the “Growth Rate” value in the series on U2OS (setting [9]) is given as 0.58; in the series with U2OS (setting [10]) it was 0.65; in the series with U2OS (setting [5]), 0.9; in the series with U2OS (setting [6]) it was 0.69; in the series with U2OS (setting [8]) it was 0.79.
For the molecule `CCOC(=O)N[C@@H]1CC[C@@H]2[C@@H](C1)C[C@H]1C(=O)O[C@H](C)[C@H]1[C@H]2/C=C/c1ccc(-c2cccc(F)c2)cn1` [VORAPAXAR], the “Growth Rate” value with Fibroblast (setting [3]) is listed as 0.13; in the series on Fibroblast (setting [9]) it was -0.65; in the series on Fibroblast (setting [4]), -0.08; with Fibroblast (setting [10]) it was -0.18; in the series on Fibroblast (setting [5]), -0.15; with Fibroblast (setting [6]), -0.11. For the same molecule, the “Growth Rate” value with Fibroblast (setting [7]) is recorded as 0.18; with Fibroblast (setting [8]), 0.15; in the series on HEK-293T (setting [3]) it was 0.72; with HEK-293T (setting [4]) it was 0.42; with HEK-293T (setting [10]), 0.85; in the series with HEK-293T (setting [5]), 0.48. The “Growth Rate” value in the series on HEK-293T (setting [6]) is given as 0.87; in the series on HEK-293T (setting [7]) it was 0.45; with HEK-293T (setting [8]), 0.95; in the series with U2OS (setting [1]) it was -0.64; in the series with U2OS (setting [10]), 0.96; in the series on U2OS (setting [6]) it was 0.88. Besides, the “Growth Rate” value in the series with U2OS (setting [8]) is on record as 0.9.
On to `CCCCC/C=C\C/C=C\C/C=C\C/C=C\CCCC(=O)NCC(=O)O` [ARACHIDONOYL GLYCINE], for which the “Growth Rate” value in the series on Fibroblast (setting [1]) is 0.41; with Fibroblast (setting [2]), 0.25; in the series on Fibroblast (setting [3]) it was 0.18; in the series with Fibroblast (setting [9]), 0.75; in the series on Fibroblast (setting [4]) it was 0.75; in the series on Fibroblast (setting [10]), 0.99. Also, the “Growth Rate” value in the series on Fibroblast (setting [5]) is recorded as 0.78; with Fibroblast (setting [6]) it was 0.93; in the series on Fibroblast (setting [7]), 0.8; with Fibroblast (setting [8]), 0.79; with HEK-293T (setting [1]), 0.53; in the series on HEK-293T (setting [2]) it was 0.42. The “Growth Rate” value in the series with HEK-293T (setting [4]) is recorded as 0.8; with HEK-293T (setting [5]), 0.64; in the series with HEK-293T (setting [6]), 0.93; in the series with HEK-293T (setting [7]), 0.52; in the series on HEK-293T (setting [8]), 0.83; in the series with U2OS (setting [1]), -0.29. Also, the “Growth Rate” value with U2OS (setting [2]) turned out to be 0.28; in the series with U2OS (setting [3]) it was 0.64; with U2OS (setting [4]) it was 0.64; with U2OS (setting [10]) it was 0.9; with U2OS (setting [5]) it was 0.72; in the series with U2OS (setting [6]) it was 0.97. Further, the “Growth Rate” value with U2OS (setting [7]) was determined as 0.76.
On to `C[C@@H]1CC(=O)Nc2cccc(-c3ccc4c(c3)c(-c3cnn(C)c3)nn4C)c2N1`, for which the “Growth Rate” value in the series with Fibroblast (setting [3]) turned out to be 0.21; in the series on HEK-293T (setting [2]) it was 0.93; with HEK-293T (setting [3]), 0.14; with HEK-293T (setting [9]), 0.26; in the series on HEK-293T (setting [4]) it was 0.43; in the series with HEK-293T (setting [10]) it was 0.42. The “Growth Rate” value with HEK-293T (setting [5]) was 0.41; in the series with HEK-293T (setting [6]), 0.45; with HEK-293T (setting [7]), 0.38; with HEK-293T (setting [8]), 0.43; in the series on U2OS (setting [1]), -0.4; in the series with U2OS (setting [3]) it was 0.24. The “Growth Rate” value in the series with U2OS (setting [4]) was found to be 0.53; in the series with U2OS (setting [5]), 0.7; with U2OS (setting [7]), 0.85.
Take `O=C(Nc1cc(C(F)(F)F)ccc1N1CCCCC1)c1ccncc1`: the “Growth Rate” value with Fibroblast (setting [2]) is listed as 0.62; in the series with Fibroblast (setting [3]), -0.18; in the series on Fibroblast (setting [4]), 0.52; in the series with Fibroblast (setting [5]), 0.65; in the series on Fibroblast (setting [7]) it was 0.59; in the series on Fibroblast (setting [8]) it was 0.83. For the same molecule, the “Growth Rate” value was 0.08 in the series on HEK-293T (setting [1]); 0.52 in the series with HEK-293T (setting [2]); 0.9 in the series with HEK-293T (setting [10]); 0.95 in the series on HEK-293T (setting [8]); -0.22 in the series with U2OS (setting [1]); 0.81 in the series with U2OS (setting [2]). The “Growth Rate” value with U2OS (setting [3]) is listed as 0.54; in the series on U2OS (setting [9]) it was 0.75; in the series with U2OS (setting [4]) it was 0.85; in the series on U2OS (setting [10]) it was 0.76; in the series on U2OS (setting [5]), 0.87; in the series with U2OS (setting [6]), 0.99. For the same molecule, the “Growth Rate” value in the series on U2OS (setting [7]) is 0.81.
